{
  "source": "patent US20110123612A1",
  "about": "“PHARMACEUTICAL PREPARATION CONTAINING NON-DIHYDROPYRIDINE CALCIUM CHANNEL BLOCKER AND ANGIOTENSIN-2 RECEPTOR BLOCKER” (priority 2008, published 2011)",
  "origin": "cited, not measured here",
  "key": {"[1]": {"details": "active losartan molecule released into blood"}, "[2]": {"details": "active form of losartan"}},
  "data": [
    {"compound": "CCCCc1nc(Cl)c(CO)n1Cc1ccc(-c2ccccc2-c2nn[nH]n2)cc1", "note": "[losartan]", "values": [
      {"measurement": "time to peak blood concentration", "setting": "[1]", "value": "≤ 1", "unit": "h"},
      {"measurement": "anti-hypertensive effects of the active form", "setting": "[2]", "value": "≥ 10", "unit": "fold"}
    ]}
  ]
}
